Experimental data taken from US12505549B1, “Microscopy image analyses for disease modeling” (Insitro, Inc., priority 2020, dated 2025).

Key:
Assay type in all cases: cell-based
[1] = tested on: HepG2 and A549 cell lines; assay: Cell painting morphological manifold of compound-treated cancer cell lines (deep CNN); settings: for clustering in manifold by phenotypic effect (FIG. 16H): previously unseen drugs versus previously seen drugs; for clustering in morphological embedding (FIGS. 18A, 18B): 48 hours incubation, held-out versus training compounds
Description: Immortalized cancer cell lines A549 and HepG2 were cultured in T150 flasks and harvested above 60% confluency. The cells were counted on a cell counter (Countess by ThermoFisher) the cell suspension was adjusted to 2000 cells per 50 μL well of a 384 well PDL coated Cell Carrier Ultra (Perkin Elmer) plates. The cells were incubated overnight in a 37 C 5% CO2 incubator and then dosed with our compound collection (at multiple concentrations in log space) in DMSO with a Labcyte Echo from Echo qualified PP2.0 plates. After dosing the cells were incubated for 48 hours in a 37 C 5% CO2 incubator. After the incubation period the plates were stained with Mito-tracker by removing the cell media, washing with PBS on a EL406 plate washer (Biotek), then adding diluted 1 mM stock concentration mitotracker dye in cell culture media to each well with a PRIME liquid handler (HighRes Biosciences). The plates were incubated for 30 minutes and then washed 1× with PBS. Formaldehyde was added to each well of each plate to fix the cells and incubated for 20 minutes and then washed 5× with PBS. 0.1% Triton in PBS was added to the plates and incubated for 15 minutes then washed 2× with PBS and a stain mixture was added to all wells of the plates. The stain mixture included 5 μg/mL Hoechst, 100 μg/mL Concanavalin Alexa Fluor 488 conjugate, 3 uM SYTO 14 green fluorescent nucleic acid stain, 5 uL/mL Phalloidin/Alexa Fluor 568 conjugate, and 1.5 μg/mL Wheat Germ Agglutinin Alexa Fluor 555 conjugate in HBSS with BSA. The plates were incubated for 30 minutes with the stain solution and then washed 4× with PBS. The plates were then imaged in a Perkin Elmer Opera Phenix microscope with 16 images taken per well for all stain wavelengths.
This is a classification task where the goal is to identify which compound was used to perturb the cells in a single well. A single well is split into 16 different fields of views (FOV) which are captured by the microscope. The raw FOV images were preprocessed by correcting the illumination. The FOV images were further cropped into smaller squares so that we can fit into memory during the training of deep convolutional neural network (CNN) models. The Hoechst channel was used to detect the nucleus and then make a square around the detected nucleus.
A deep convolutional neural network was implemented to model the classification task. It was a 150-way classification task. The residual networks (ResNets) was used as the base feature extractor network with a fully connected linear network on top to perform the classification. Standard augmentations were implemented which improved the performance and removed experimental biases. For example, intensity based augmentations like gamma contrast are helpful in removing experimental biases (batch effects). For the mechanism of action identification, some compounds were omitted (˜30 compounds out of 150) during training. During inference, the unseen compounds were embedded closer to the expected mechanism of action cluster along with the seen compounds. FIG. 18A depicts example embeddings with similar drugs clustered more closely together. Here, lovastatin is a held out, unseen drug whereas atorvastatin is a drug used for training. […] In accordance with the methodology of Example 11 (e.g., FIGS. 16A-16D) described above, using embeddings/predictions, the candidate therapy is analyzed to predict its effect (e.g., effect in reverting disease phenotype back to healthy), and further validated in vitro.

knockout treated cells = assay: Microscopy tile embeddings (deep neural network, UMAP) of WT and KO lines with treatment; settings: UMAP projector calculated on untreated WT/KO tile embeddings
Description: FIG. 16C depicts an example embedding showing phenotypic distinction between wild type and knockout cells. FIG. 16C was generated by projecting embeddings extracted from a deep neural network down to two dimensions using UMAP. The neural network model was trained in a supervised manner to discriminate between sick/healthy based on labels for WT and KO lines respectively. Each point in the figure corresponds to a tile of the original microscopy image. The points represented here are only for the WT and KO groups without treatment.
FIG. 16D depicts the use of embeddings for validating known effects of treatments (e.g., rapamycin and everolimus). The following figure uses the same UMAP projector calculated on tile embeddings of WT/KO with no treatment to project the embeddings representing treatment groups into the same space.

[2] = tested on: human cortical excitatory neurons; assay: Neuropaint high-content imaging of neurons exposed to small molecule compounds, ML embeddings; settings: 3 concentrations; DAPI, LV-Syn-GFP, Actin, Mito-tracker stains
Description: DoxNGN2 iPSCs were plated at two different seeding densities (1k and 6k cells) and further differentiated into human cortical excitatory neurons. Different populations of neurons were exposed to 3 different concentrations of small molecules including rotenone, everolimus, loxapine, phorbol 12-myristate 13-acetate (PMA), staurosporine, rapamycin, BIO, and blebbistatin. Neurons were also treated with controls including phosphate buffered saline and dimethyl sulfoxide (DMSO). Following treatment, phenotypic assay data was captured from the treated neurons by performing high-content imaging (e.g., Neuropaint).

SMILES | clustering in manifold by phenotypic effect (FIG. 16H) [1] | clustering in morphological embedding (FIGS. 18A, 18B) [1] | also measured
COc1ccc(-c2ccc3c(N4CCOC[C@@H]4C)nc(N4CCOC[C@@H]4C)nc3n2)cc1CO [AZD 8055] | clustered proximity to previously seen drugs |  | 
COc1cc(C(=O)O)ccc1NC(=O)[C@@H]1N[C@@H](CC(C)(C)C)[C@](C#N)(c2ccc(Cl)cc2F)[C@H]1c1cccc(Cl)c1F [RG7388] | clustered proximity to previously seen drugs |  | 
CC(C)c1c(C(=O)Nc2ccccc2)c(-c2ccccc2)c(-c2ccc(F)cc2)n1CC[C@@H](O)C[C@@H](O)CC(=O)O [atorvastatin] |  | clustered close together | 
CO[C@H]1C[C@@H]2CC[C@@H](C)[C@@](O)(O2)C(=O)C(=O)N2CCCC[C@H]2C(=O)O[C@H]([C@H](C)C[C@@H]2CC[C@@H](OCCO)[C@H](OC)C2)CC(=O)[C@H](C)/C=C(\C)[C@@H](O)[C@@H](OC)C(=O)[C@H](C)C[C@H](C)/C=C/C=C/C=C/1C [everolimus] |  |  | shift of knockout cells in image embedding (FIG. 16D) (knockout treated cells): induces knockout treated cells to revert back towards a healthy phenotype
CC[C@H](C)C(=O)O[C@H]1C[C@@H](C)C=C2C=C[C@H](C)[C@H](CC[C@@H]3C[C@@H](O)CC(=O)O3)[C@H]21 [lovastatin] | clustered proximity to previously seen drugs | clustered close together | 
CN[C@@H]1C[C@H]2O[C@@](C)([C@@H]1OC)n1c3ccccc3c3c4c(c5c6ccccc6n2c5c31)C(=O)NC4 [staurosporine] |  |  | location of treated neurons in embeddings (FIG. 10C) [2]: located separate from neurons treated with other small compounds
